Experiment [1] can be described thus: growth suppression of PTEN-null colon cells, dose response, cell-based, HCT116 PTEN knockout (AID 1047).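 Also: HCT116 colon tumor cells with PTEN knocked out; cells exposed to compound for 60 hours before readout; potency for loss of cell viability measured by luminescence.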 Type of experiment: functional.
Experiment [2] has as its target T1, Heat shock factor protein 1 (Mus musculus, UniProt P38532).
T1 sequence (P38532 whole entry): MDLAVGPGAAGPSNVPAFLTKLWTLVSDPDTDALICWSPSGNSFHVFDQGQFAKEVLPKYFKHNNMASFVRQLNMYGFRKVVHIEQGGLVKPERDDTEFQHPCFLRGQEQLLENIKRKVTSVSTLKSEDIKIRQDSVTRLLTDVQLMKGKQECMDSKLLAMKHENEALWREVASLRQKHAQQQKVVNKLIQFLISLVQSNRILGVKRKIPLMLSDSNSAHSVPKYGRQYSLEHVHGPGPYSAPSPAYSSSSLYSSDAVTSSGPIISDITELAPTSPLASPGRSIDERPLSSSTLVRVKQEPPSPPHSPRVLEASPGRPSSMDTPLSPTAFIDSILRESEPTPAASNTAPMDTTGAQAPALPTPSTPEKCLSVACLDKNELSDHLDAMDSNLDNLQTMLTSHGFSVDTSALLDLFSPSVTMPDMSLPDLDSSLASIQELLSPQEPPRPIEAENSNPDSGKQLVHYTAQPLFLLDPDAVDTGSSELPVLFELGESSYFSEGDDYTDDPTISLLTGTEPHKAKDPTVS
The experiment can be described thus: inhibition of MG132-induced HSE-luciferase signal, confirmation, cell-based, NIH3T3, luminescence, dose retest (AID 2382).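 Also: NIH3T3 fibroblasts with HSF1-driven luciferase reporter stressed by proteasome inhibitor MG132; luminescence from HSF1-driven luciferase expression after 8 hours of MG132 stress.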 Type of experiment: functional.

The nature of experiment [3]: growth suppression of beta-catenin-knockout colon cells, dose response, cell-based, HCT116, human colon tumor (AID 1045).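 Also: HCT116 colon tumor cells with beta catenin knocked out; cells exposed to compound for 60 hours.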 Type of experiment: functional.
Experiment [4] deals with T2, RNA-binding protein pos-1 (Caenorhabditis elegans, UniProt G5EF15).
T2 sequence (G5EF15 whole entry): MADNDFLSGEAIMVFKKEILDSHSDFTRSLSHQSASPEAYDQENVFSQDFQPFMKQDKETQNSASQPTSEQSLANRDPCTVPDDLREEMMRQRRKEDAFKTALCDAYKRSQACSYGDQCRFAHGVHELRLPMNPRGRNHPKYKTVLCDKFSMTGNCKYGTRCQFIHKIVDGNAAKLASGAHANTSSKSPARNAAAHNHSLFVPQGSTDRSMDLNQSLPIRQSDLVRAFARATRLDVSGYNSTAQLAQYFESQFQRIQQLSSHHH
The experiment can be described thus: inhibitors of POS-1/mex-3 RNA binding, dose response, biochemical, fluorescence polarization (AID 1964).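 Also: purified POS-1 fused to maltose binding protein made in E. coli; potency of compounds blocking POS-1 binding to fluorescent RNA.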 Background: Polarisation of emitted light reports the rotation of a fluorescent probe.

Experiment [5] has as its target T3, Zinc finger protein mex-5 (Caenorhabditis elegans, UniProt Q9XUB2).
T3 sequence (Q9XUB2 whole entry): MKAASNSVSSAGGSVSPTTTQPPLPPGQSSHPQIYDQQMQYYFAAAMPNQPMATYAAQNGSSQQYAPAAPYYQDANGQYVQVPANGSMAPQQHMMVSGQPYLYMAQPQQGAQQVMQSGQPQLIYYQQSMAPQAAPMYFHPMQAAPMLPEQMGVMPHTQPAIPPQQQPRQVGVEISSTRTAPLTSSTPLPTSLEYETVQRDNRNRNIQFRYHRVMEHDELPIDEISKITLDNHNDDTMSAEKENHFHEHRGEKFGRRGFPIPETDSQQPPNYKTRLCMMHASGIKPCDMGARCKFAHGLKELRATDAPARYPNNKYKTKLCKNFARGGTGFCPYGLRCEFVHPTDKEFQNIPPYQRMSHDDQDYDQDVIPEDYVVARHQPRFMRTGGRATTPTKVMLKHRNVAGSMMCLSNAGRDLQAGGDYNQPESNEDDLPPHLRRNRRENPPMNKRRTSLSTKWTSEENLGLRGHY
The experiment can be described thus: MEX-5/TCR-2 RNA interaction inhibitors, dose response, biochemical, C. elegans, fluorescence polarization (AID 1960).

Experiment [6] addresses T4, Calpain-2 catalytic subunit (Sus scrofa, UniProt P43367).
T4 sequence (P43367 whole entry): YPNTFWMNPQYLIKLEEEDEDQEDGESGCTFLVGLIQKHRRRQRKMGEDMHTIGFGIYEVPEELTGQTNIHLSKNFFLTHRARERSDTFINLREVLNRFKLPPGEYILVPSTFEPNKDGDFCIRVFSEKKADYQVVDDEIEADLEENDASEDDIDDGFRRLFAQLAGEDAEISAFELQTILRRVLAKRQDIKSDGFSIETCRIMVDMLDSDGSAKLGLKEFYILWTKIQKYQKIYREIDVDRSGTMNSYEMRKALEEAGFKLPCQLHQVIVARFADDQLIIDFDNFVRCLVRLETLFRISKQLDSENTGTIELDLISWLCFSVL
Nature of the experiment: pig calpain II inhibitor potency, dose response, biochemical, fluorogenic peptide substrate (AID 1420). Type of experiment: functional.

The next experiment is described as follows: cells. Type of experiment: functional.
The test system of the next experiment is H9c2. Nature of the experiment: cells. Type of experiment: functional, cell-based. To be noted: Rattus norvegicus, H9c2, Myocardium.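 Also: confirmatory concentration-response retest of ultra-high-throughput screening hits for modulation of myocardial damage; cell death induced by hydrogen peroxide oxidative stress; compound pretreatment for 60 min then peroxide exposure for 2 h; potency is for protecting the cells against peroxide damage rather than for killing them.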
The next experiment has as its target Large T antigen (Simian virus 40, UniProt P03070). Type of experiment: functional, Betapolyomavirus macacae.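 Also: Confirmatory-stage PubChem screen for compounds that inhibit SV40 T antigen.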
A short description of experiment [7]: inhibitors of intracellular T. cruzi replication, confirmation, NIH3T3 host cells, beta-gal luminescence (AID 2044).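 Also: intracellular parasites grown in NIH/3T3 mouse fibroblasts as host cells; luminescent beta-galactosidase reporter signal from transgenic T. cruzi replicating inside host cells; inhibitors lower the luminescence signal.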 Type of experiment: functional, cell-based.
Experiment [8] can be described thus: cytotoxicity toward NIH3T3 fibroblasts, dose response, counter-screen, cell-based, ATP luminescence, mouse fibroblasts (AID 2010).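 Also: cells exposed to compound for about 90 hours before reading.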 Type of experiment: functional.
Another experiment concerns H4. Nature of the experiment: Luminescence Cell-Based Dose Response HTS to Identify Activators of 5'UTR Stem-Loop Driven Prion Protein mRNA Translation in H4 Neuroglioblastoma Cells. [Related pubchem assays: 1829 (Project Summary), 1814 (Primary HTS)]. To be noted: Homo sapiens. Type of experiment: functional.
The nature of experiment [9]: Luminescence Cell-Based Dose Response HTS to Identify Activators of Luciferase Translation or Activity in H4 […] Cells. [Related pubchem assays: 1829 (Project Summary), 1814 (Primary HTS)]. Type of experiment: functional.
Experiment [10] relates to BJ. The experiment can be described thus: cytotoxicity toward BJ-TERT-LT-ST fibroblasts, dose response, cell-based, RAS-independent, luminescence (AID 1935).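 Also: BJ fibroblasts immortalized with TERT plus LT and ST oncogenes.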 To be noted: Homo sapiens. Type of experiment: functional.
Experiment [11] deals with BJ. Nature of the experiment: cells. Type of experiment: functional, cell-based. To be noted: Homo sapiens.
For experiment [12], the system named is BJ. The experiment can be described thus: cytotoxicity toward BJ-TERT fibroblasts, dose response, cell-based, RAS-independent, luminescence (AID 1933). Type of experiment: functional. To be noted: Homo sapiens.
Experiment [13] in a line: cytotoxicity toward DRD oncogenic fibroblasts, dose response, cell-based, non-viral oncogenic, luminescence (AID 1934). Type of experiment: functional. To be noted: Homo sapiens.

In ChEMBL document CHEMBL1201862, “PubChem BioAssay data set” (2004) one finds EC50 and IC50 data, which are given here for 37 molecules.

Calls of active or inactive are those of the source. Rule as the data show it, for most assays here: actives have a measured EC50 and inactives only a lower limit.

Large T antigen, sequence (P03070 whole entry): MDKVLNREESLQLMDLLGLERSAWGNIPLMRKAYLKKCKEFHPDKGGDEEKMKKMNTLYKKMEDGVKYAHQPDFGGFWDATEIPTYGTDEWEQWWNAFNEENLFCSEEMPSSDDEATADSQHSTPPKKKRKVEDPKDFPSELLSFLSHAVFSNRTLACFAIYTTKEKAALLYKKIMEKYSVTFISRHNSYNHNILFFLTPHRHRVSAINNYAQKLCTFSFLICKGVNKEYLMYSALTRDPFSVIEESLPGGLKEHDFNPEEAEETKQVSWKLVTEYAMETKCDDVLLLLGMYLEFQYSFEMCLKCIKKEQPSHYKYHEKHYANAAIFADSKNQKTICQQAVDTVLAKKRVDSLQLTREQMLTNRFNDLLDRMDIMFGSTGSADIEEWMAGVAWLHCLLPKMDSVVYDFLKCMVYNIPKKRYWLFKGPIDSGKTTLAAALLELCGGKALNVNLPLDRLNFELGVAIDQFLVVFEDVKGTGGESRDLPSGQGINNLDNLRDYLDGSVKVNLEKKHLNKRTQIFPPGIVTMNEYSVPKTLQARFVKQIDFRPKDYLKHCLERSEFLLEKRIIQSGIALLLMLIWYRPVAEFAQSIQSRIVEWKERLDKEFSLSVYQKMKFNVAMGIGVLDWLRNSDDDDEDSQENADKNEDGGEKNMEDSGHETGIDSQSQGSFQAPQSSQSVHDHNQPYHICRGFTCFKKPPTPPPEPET

Take `Cc1[nH]c2ccc(-c3nnc(SCC(=O)c4ccc(F)cc4)o3)cc2c1C`: the results for the EC50 in [1], in [2] and in experiment [3] were 33.4 µM (active), > 195 µM (not active) and 31.2 µM (active), respectively.

Consider `CS(=O)(=O)N(CC(O)Cn1c2ccccc2c2ccccc21)c1cccc2ccccc12` (stereo not drawn), for which the EC50 – broadly, the concentration that produces a half-maximal response – was 16 µM (active) in [1] and 18.1 µM (active) in experiment [3].

With `CCOC(=O)C1Nc2ccc(C(F)(F)F)cc2C2C=CCC12` (stereo not drawn), the EC50 in [4] and in experiment [5] was > 300 µM (not active) in each case.

Consider `CCOC(=O)C1CCN(S(=O)(=O)c2cc(Br)cc3c2N(C(=O)C2CC2)CC3)CC1`, for which the IC50 (commonly the concentration needed to halve the response being measured) in [6] is 11.5 µM (not active).

As to `CCOC(=O)COc1cc(N)c(Cl)cc1Cl`, in the experiment “cells”, the IC50 was 7.65 µM (active).

As for `C[C@@H]1ON(C)[C@H]2C[C@H]3c4[nH]c5ccc(-c6ccc7c(c6)OCO7)cc5c4CCN3C[C@@H]12`, the IC50 in the experiment with H9c2 is > 79 µM (inactive).

Turning to `CC(=O)c1ccc(NC(=O)CSc2nnc(-c3ccncc3)o2)cc1`, the EC50 in experiment [4] and in experiment [5] was > 300 µM (not active) each time.

With `Cc1cc(O)nc2ccc(S(=O)(=O)Nc3ccc(O)cc3)cc12`, the IC50 at Large T antigen is 7.49 µM (active).

In the case of `O/N=C(\c1ccc(Cl)cc1)c1cc2ccccc2o1`, in [6], the concentration for half-maximal inhibition (IC50) is recorded as 2.06 µM (not active).

Regarding `O=C(CN1CCN(c2ccc(O)cc2)CC1)Nc1ccc2c(c1)OCCO2`, the IC50 on Large T antigen is 8.22 µM (active).

Regarding `CCOc1ccc(Cl)cc1S(=O)(=O)N1CCN(c2ccc(F)cc2)CC1`, the IC50 in experiment [6] is 7.1 µM (not active).

With `CC(C)(C)c1ccc(OCCOc2ccc(C(C)(C)C)cc2NC=O)c(NC=O)c1`, the IC50 in [6] is 16.6 µM (not active). Moreover, the results for the EC50 in experiment [7] and in experiment [8] were 2.47 µM (active) and > 60 µM (not active), respectively.

Consider `O=C1NC(=O)[C@@H]2C3c4ccccc4C=CN3[C@H](C(=O)c3cccs3)[C@H]12` (stereo partly drawn), for which the EC50 is 24.6 µM (inconclusive) in [4] and 16.4 µM (active) in experiment [5].

In the case of `O=S(=O)(c1ccccc1)N1CCN(c2nc(-c3cccnc3)nc3ccccc23)CC1`, the IC50 with H9c2 is 10.2 µM (active).

With `Nc1ncccc1OCc1ccc(Br)cc1`, the EC50 in the experiment with H4 was > 120 µM (not active); in [9] it was 1.05 µM (active).

Consider `Nc1ccc(-c2nnc(O)c3ccccc23)cc1N`, for which the IC50 with H9c2 was > 79 µM (inactive).

Consider `c1ccc(-c2nc(-c3ccccn3)nc(-c3ccccn3)n2)nc1`, for which the EC50 in experiment [4] is 31.1 µM (active); in [5], 54.6 µM (active).

Turning to `COc1ccccc1-c1cc(C(=O)N/N=C/C=C/c2ccccc2[N+](=O)[O-])c2ccccc2n1`, the IC50 in the experiment on H9c2 was > 79 µM (inactive).

With `O=C(N[C@@H](Cc1ccccc1)C(=O)OCc1ccccc1)c1[nH]cnc1C(=O)N1CCN(c2ccccc2)CC1`, the IC50 in experiment [6] was 6.6 µM (not active).

As for `COc1ccccc1OCCNC(=O)c1cc([N+](=O)[O-])cc([N+](=O)[O-])c1`, the EC50 in experiment [7] is 0.107 µM (active); in [8], > 60 µM (not active). In addition, the IC50 in “cells” was 47.6 µM (active).

Consider `Brc1ccc(-c2csc(NC3=NCCCCC3)n2)cc1`, for which the EC50 is 36.6 µM (active) in the experiment with H4 and 18.9 µM (active) in experiment [9].

Consider `C[C@H](NS(=O)(=O)c1ccc(Cl)cc1)C(=O)OCC(=O)NC(=O)Nc1ccc2c(c1)OCCO2`, for which the IC50 in experiment [6] is reported as 14.2 µM (not active).

In the case of `O=C(Nc1ccc(N2CCCC2)cc1)c1cc(Cl)ccc1Cl`, the EC50 with BJ [10] is 146 µM (active); in the experiment with BJ [11] it was > 150 µM (not active); in the experiment with BJ [12] it was 13.6 µM (active); in [13], 15.8 µM (active).

Regarding `O=C(OCCCN1CCOCC1)c1ccc(O)c(O)c1`, in experiment [2], the EC50 is 34.7 µM (active). Also, the IC50 at Large T antigen is 11.7 µM (active).

For `COc1ccc(N2C3=C(CC4=C2CC(C)(C)CC4=O)C(=O)CC(C)(C)C3)cc1`, the EC50 is 0.484 µM (active) in [7], 9.52 µM (active) in [1], 9.07 µM (active) in experiment [8] and 8.4 µM (active) in experiment [3].

Regarding `CCOC(=O)c1cccc(-n2c(-c3ccc(OC)cc3)nc3nc4ccccc4nc32)c1`, the EC50 in [1] was 15.3 µM (active); in [3], 13.5 µM (active).

`COc1ccc(NC(=O)c2c(Cl)n(C)c3ccccc23)cc1`: the EC50 was > 150 µM (inconclusive) with BJ [10], 23 µM (active) in the experiment with BJ [11], 22.7 µM (active) in the experiment on BJ [12] and 25.3 µM (active) in experiment [13].

Turning to `Cc1c(-c2ccc(Br)cc2)nc2ccccn12`, the IC50 in “cells” is 49.4 µM (active).

As to `CN1C(=O)C(=CNCCCCCCCCCCC(=O)O)C(=O)N(C)C1=O`, the EC50 in experiment [4] and in experiment [5] was > 300 µM (not active) throughout.

Take `N=C(NOC(=O)CCCCCN1C(=O)c2ccccc2C1=O)c1ccccc1`: the IC50 in [6] was 48.1 µM (not active).

Turning to `CN(C(=O)CCc1nc(O)c2ccccc2n1)C1CCS(=O)(=O)C1` (stereo not drawn), the IC50 in the experiment with H9c2 was > 79 µM (inactive).

Consider `COc1ccc(/C=N/NC(=O)c2ccc(Br)cc2)cc1CN1CCOCC1`, for which the IC50 at Large T antigen was 15.8 µM (active).

Turning to `CCCc1cc(O)nc(Nc2ccc(O)cc2)n1`, the IC50 at Large T antigen is 6.91 µM (active).

As to `COc1cc2c(cc1OC)C[N+](C)(C)CC2`, the IC50 at Large T antigen is 55.1 µM (active).

Regarding `Nc1nc(NC(=O)c2cccs2)nn1-c1ccccc1`, the EC50 with H4 is listed as > 120 µM (not active).

For `COc1ccccc1NS(=O)(=O)c1ccc2oc(SCC(=O)N3CCNC3=O)nc2c1`, the IC50 with H9c2 is 15.8 µM (active).

With `N#CC1=C(N)C(C#N)(C#N)C(c2cccnc2)C2COCC=C12` (stereo not drawn), the EC50 in [4] and in experiment [5] was > 300 µM (not active) throughout.
